This passage reports IC50 results from ChEMBL document CHEMBL1135348, “Synthesis and anticancer evaluation of vitamin K(3) analogues” (Bioorg Med Chem Lett, 2002).

Assay [1] concerns MKN-45. Nature of the assay: Concentration required for 50% inhibition of growth in human stomach adenocarcinoma (MKN45) cell line was determined. The assay is classed as functional, cell-based.
Assay [2] has as its system MCF7. Briefly: Concentration required for 50% inhibition of growth in mammary gland breast adenocarcinoma (MCF-7) cell line was determined. Type of assay: functional, cell-based. Conditions: Homo sapiens.
The test system of assay [3] is A549. Nature of the assay: Concentration required for 50% inhibition of growth in human lung carcinoma cell line was determined. The assay is classed as functional, cell-based.
For assay [4], the system named is SW480. Nature of the assay: Concentration required for 50% inhibition of growth in human colon adenocarcinoma (SW-480) cell line. Type of assay: functional, cell-based.
Assay [5] has as its system MES-SA. Briefly: Concentration required for 50% inhibition of growth in human uterine sarcoma (MES-SA) cell line was determined. Type of assay: functional, cell-based.
For assay [6], the system named is WI-38. Nature of the assay: Concentration required for 50% inhibition of growth in normal human lung fibroblast (WI-38 cell line) cell line was determined. Type of assay: functional, cell-based.
In assay [7] the test system is NPC-TW-039. Briefly: Concentration required for 50% inhibition of growth in human nasopharyngeal carcinoma (TW-039) cell line was determined.
Assay [8] relates to HepG2. Nature of the assay: Concentration required for 50% inhibition of growth in human liver hepatoblastoma (Hep G2) cell line was determined. Type of assay: functional, cell-based.
The nature of assay [9]: Concentration required for 50% inhibition of growth in human multidrug resistance uterine sarcoma (MES-SA/Dx5 ) cell line was determined. The assay is classed as functional, cell-based.
The subject of assay [10] is Detroit 551. Briefly: Concentration required for 50% inhibition of growth in normal human embryonic skin fibroblast (Detroit551c) cell line was determined. Type of assay: functional, cell-based.
Assay [11] can be described thus: Dose required for 50% inhibition of growth of Hep3B cells. The assay is classed as functional, Hep 3B2. The settings on record: Homo sapiens, read-out: ID50 (the source's name).
The test system of assay [12] is Detroit 551. Nature of the assay: Concentration required for 50% inhibition of growth in normal human embryonic skin fibroblast cell line was determined. The assay is classed as functional, cell-based.

Each structure is given as a SMILES string.

Regarding `CC1=C(SCC(C)O)C(=O)c2ccccc2C1=O` (racemic), the IC50 in [1] turned out to be 3.92 µM; in [2] it was 4.61 µM; in [3] it was 4.74 µM; in assay [4], 5.19 µM; in assay [5], 7.11 µM; in assay [6] it was 5.06 µM. For the same compound, the IC50 was > 10 µM in assay [7], 5.59 µM in [8], 5.1 µM in assay [9] and 4.61 µM in assay [10].
As to `CC1=CC(=O)c2ccccc2C1=O` [MENADIONE], the IC50 in assay [11] came out at 10 µM.
Regarding `CCCCOC1=C(C)C(=O)c2ccccc2C1=O`, in [11], the IC50 is 55 µM.
On to `CC1=C(SCCCCO)C(=O)c2ccccc2C1=O`, for which the IC50 in [1] is 6.78 µM; in [2] it was 5.78 µM; in assay [3], > 10 µM; in [4], 4.51 µM; in [5] it was > 10 µM; in assay [12], 7.57 µM. In addition, the IC50 in [6], in assay [7], in [8] and in assay [9] was > 10 µM each time.
Take `CC1=C(SCCCCCCO)C(=O)c2ccccc2C1=O`: the IC50 was > 10 µM in assay [1]; 9.28 µM in assay [2]; > 10 µM in [3]; > 10 µM in [4]; > 10 µM in [5]; > 10 µM in assay [12]. Further, the IC50 in assay [6], in [7], in assay [8] and in [9] was > 10 µM in each case.
Consider `CC1=C(SC(C)C(C)O)C(=O)c2ccccc2C1=O` (stereo not drawn), for which the IC50 in assay [1] was 5.64 µM; in assay [2] it was > 10 µM; in assay [3] it was > 10 µM; in [4] it was 5.53 µM; in assay [5], > 10 µM; in assay [12] it was > 10 µM. Further, the IC50 in assay [6], in assay [7], in [8] and in [9] was > 10 µM throughout.
Take `CC1=C(SCCCO)C(=O)c2ccccc2C1=O`: the IC50 in assay [1] is 6.4 µM; in assay [2], 5.16 µM; in assay [3], > 10 µM; in assay [4] it was 4.85 µM; in assay [5], > 10 µM; in assay [6], > 10 µM. In addition, the IC50 was > 10 µM in [7], 9.53 µM in assay [8], > 10 µM in assay [9] and 5.26 µM in [10].
Turning to `CCCCCCCCOC1=C(C)C(=O)c2ccccc2C1=O`, in assay [11], the IC50 amounted to 140 µM.
As to `CCCSC1=C(C)C(=O)c2ccccc2C1=O`, in [11], the IC50 is 14 µM.
In the case of `CC1=C(SCCO)C(=O)c2ccccc2C1=O`, the IC50 in [1] is 5.16 µM; in assay [2], 5.19 µM; in assay [3], > 10 µM; in assay [4] it was 5.14 µM; in assay [5] it was > 10 µM; in assay [11], 5.6 µM. The IC50 in assay [6] is 7.37 µM; in assay [7], > 10 µM; in [8], 8.4 µM; in assay [9] it was > 10 µM; in assay [10] it was 8.17 µM.
In the case of `CCCCSC1=C(C)C(=O)c2ccccc2C1=O`, in assay [11], the IC50 was 15 µM.
Consider `CCCCCCCCSC1=C(C)C(=O)c2ccccc2C1=O`, for which the IC50 in assay [11] was determined as 100 µM.
Consider `CCCCC1=C(C)C(=O)c2ccccc2C1=O`, for which, in [11], the IC50 came to 78 µM.
